Experimental data reported in publication PMC11251196, “Actinium chelation and crystallization in a macromolecular scaffold” (Nature Communications, 2024).

What was measured:
Format in all cases: binding
siderocalin (Scn) [1] = target: T1, siderocalin (Scn) (Homo sapiens, UniProt P80188); assay: tryptophan fluorescence quenching titration of metal-free ligand, pH […]
T1 construct: gene LCN2

siderocalin (Scn) [2] = target: T1, siderocalin (Scn); assay: tryptophan fluorescence quenching titration, pH […]; crystal structure at […] Å
siderocalin (Scn) [3] = target: T1, siderocalin (Scn); assay: as above; remark: listed apart in the source

T1 sequence (P80188 21-198): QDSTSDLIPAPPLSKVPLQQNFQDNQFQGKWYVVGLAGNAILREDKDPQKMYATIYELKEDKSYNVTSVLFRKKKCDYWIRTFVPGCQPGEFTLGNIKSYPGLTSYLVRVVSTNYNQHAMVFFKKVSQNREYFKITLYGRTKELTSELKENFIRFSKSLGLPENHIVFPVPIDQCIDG

O=C(NCCCN(CCCCN(CCCNC(=O)c1cccc(=O)n1O)C(=O)c1cccc(=O)n1O)C(=O)c1cccc(=O)n1O)c1cccc(=O)n1O [HOPO, 3,4,3-LI(1,2-HOPO)]
Kd (siderocalin (Scn) [1]): 43 nM

O=C(NCCCN(CCCCN(CCCNC(=O)c1cccc(=O)n1O)C(=O)c1cccc(=O)n1[O-])C(=O)c1cccc(=O)n1[O-])c1cccc(=O)n1[O-].[Ac+3] [[Ac^III(HOPO)]^1–]
Kd (siderocalin (Scn) [2]): 6 nM

O=C(NCCCN(CCCCN(CCCNC(=O)c1cccc(=O)n1O)C(=O)c1cccc(=O)n1[O-])C(=O)c1cccc(=O)n1[O-])c1cccc(=O)n1[O-].[La+3] [[La^III(HOPO)]^1–]
Kd (siderocalin (Scn) [3]): 20 nM
